Here are results for 3 compounds from publication PMC10824666 (Nature Cancer, 2023).

The structures appear in SMILES notation. Read-outs that look alike come from different tables or passages of the source.

The target of test [1] is MAP3K1 (Homo sapiens, UniProt Q13233). In words: biochemical. Further details: Eurofins DiscoverX kinase panel, competitive binding assay at 1 uM, percent of DMSO control. The settings on record: competitive binding, percent of DMSO control. An outline of the steps:
(§1)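 Competitive binding assay across a 96-kinase panel with KIF18A compounds at 1 µM; values given as percentage of control (POC), single experiment.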

Test [2] concerns the target T1, TAOK2 (Homo sapiens, UniProt Q9UL54).
T1 sequence (Q9UL54 1-1235): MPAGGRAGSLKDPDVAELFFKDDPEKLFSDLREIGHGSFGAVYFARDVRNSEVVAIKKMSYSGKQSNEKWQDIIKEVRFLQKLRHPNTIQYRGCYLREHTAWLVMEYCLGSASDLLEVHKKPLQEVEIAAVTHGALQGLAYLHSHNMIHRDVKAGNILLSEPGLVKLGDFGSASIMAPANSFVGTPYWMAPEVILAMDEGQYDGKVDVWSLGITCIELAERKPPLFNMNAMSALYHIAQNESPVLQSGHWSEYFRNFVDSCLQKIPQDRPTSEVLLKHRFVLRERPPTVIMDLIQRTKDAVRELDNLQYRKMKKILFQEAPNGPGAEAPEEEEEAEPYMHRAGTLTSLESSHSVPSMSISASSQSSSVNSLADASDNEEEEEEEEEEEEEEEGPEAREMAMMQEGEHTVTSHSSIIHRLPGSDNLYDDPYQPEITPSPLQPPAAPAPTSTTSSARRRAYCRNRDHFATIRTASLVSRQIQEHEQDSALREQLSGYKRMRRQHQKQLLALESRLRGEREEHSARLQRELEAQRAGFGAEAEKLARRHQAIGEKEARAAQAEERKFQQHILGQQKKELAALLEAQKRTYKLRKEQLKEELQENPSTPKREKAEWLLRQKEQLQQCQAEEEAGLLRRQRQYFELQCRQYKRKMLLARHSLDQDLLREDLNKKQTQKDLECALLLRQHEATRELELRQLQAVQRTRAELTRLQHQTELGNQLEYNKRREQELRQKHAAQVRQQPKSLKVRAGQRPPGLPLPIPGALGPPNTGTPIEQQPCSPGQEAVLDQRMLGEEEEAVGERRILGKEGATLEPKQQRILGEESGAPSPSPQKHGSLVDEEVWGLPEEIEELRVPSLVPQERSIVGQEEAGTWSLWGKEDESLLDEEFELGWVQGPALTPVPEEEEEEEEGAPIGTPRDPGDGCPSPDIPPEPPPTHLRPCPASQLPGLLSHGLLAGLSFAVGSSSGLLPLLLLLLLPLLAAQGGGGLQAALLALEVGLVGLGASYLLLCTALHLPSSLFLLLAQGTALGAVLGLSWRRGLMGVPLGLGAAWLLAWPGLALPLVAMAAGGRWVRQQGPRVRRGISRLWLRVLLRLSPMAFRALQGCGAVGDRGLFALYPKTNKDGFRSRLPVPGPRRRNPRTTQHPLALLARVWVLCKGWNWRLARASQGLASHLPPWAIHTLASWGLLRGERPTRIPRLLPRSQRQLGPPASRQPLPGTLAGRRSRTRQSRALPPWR
In words: biochemical. More on the design: Eurofins DiscoverX kinase panel, competitive binding assay at 1 uM, percent of DMSO control. The note with it: competitive binding, percent of DMSO control. An outline of the steps:
as §1

The mark [3] stands for this setting: read-out: Kinome Profiling performed by Eurofins DiscoverX / AM-0277, 1.0 µM / POC.
[4] abbreviates: read-out: Kinome Profiling performed by Eurofins DiscoverX / AM-1882, 1.0 µM / POC.
The mark [5] stands for this setting: read-out: Kinome Profiling performed by Eurofins DiscoverX / AM-5308, 1.0 µM / POC.

Chain of MAP3K1 (Q13233 whole entry): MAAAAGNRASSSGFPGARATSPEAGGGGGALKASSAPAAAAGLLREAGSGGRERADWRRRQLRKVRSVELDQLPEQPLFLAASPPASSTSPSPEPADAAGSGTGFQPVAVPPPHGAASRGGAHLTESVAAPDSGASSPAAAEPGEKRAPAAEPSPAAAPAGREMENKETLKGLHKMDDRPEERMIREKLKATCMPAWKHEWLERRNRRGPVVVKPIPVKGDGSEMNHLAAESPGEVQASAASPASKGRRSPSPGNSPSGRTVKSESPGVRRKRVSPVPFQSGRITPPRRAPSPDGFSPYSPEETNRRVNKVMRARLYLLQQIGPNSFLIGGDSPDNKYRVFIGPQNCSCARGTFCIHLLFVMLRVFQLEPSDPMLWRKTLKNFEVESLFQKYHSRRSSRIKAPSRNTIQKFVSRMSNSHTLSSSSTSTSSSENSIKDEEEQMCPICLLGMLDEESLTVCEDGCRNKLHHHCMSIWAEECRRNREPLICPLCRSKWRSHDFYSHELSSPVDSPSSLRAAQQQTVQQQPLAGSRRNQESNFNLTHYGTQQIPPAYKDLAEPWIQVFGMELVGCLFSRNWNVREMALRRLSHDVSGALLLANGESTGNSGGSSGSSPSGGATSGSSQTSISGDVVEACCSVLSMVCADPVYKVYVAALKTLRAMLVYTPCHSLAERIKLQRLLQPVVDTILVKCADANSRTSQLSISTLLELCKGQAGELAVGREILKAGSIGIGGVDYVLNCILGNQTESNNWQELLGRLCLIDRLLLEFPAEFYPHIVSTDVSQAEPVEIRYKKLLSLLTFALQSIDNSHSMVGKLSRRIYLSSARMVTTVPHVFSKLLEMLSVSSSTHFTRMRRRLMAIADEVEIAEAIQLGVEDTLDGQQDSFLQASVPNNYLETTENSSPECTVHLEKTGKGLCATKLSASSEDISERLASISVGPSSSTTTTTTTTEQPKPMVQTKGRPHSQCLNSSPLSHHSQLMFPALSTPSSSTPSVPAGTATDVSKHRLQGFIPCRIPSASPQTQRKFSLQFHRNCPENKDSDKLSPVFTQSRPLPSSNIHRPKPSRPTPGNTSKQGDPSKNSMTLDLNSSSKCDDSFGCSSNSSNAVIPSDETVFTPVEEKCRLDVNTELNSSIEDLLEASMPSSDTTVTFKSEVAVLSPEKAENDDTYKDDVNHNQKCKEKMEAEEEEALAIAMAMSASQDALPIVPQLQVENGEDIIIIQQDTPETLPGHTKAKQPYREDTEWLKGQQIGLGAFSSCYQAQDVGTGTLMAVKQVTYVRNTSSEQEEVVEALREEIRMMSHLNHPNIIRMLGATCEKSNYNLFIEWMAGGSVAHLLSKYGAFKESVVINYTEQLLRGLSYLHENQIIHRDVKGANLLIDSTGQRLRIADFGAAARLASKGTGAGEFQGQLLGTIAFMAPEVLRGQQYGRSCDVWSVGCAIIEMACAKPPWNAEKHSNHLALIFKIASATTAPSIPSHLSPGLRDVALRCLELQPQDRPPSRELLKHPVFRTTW

On to `CC(C)(CO)Nc1ccc(C(=O)Nc2cccc(S(=O)(=O)C3CCCC3)c2)c(N2CCC3(CC2)CC3)n1` [AM-0277], for which the remaining activity at 1 µM in test [1] (setting [3]) worked out at 100%; in test [2] (setting [3]), 98%.
For the compound `CC(C)(C)NS(=O)(=O)c1cccc(NC(=O)c2ccc(S(=O)(=O)NC(C)(C)C)cc2N2CCC3(CC2)CC3)c1` [AM-1882], the remaining activity at 1 µM worked out at 76.5% in test [1] (setting [4]) and 81.5% in test [2] (setting [4]).
In the case of `C[C@@H]1CN(c2cccc(NC(=O)c3ccc(NS(=O)(=O)CCO)cc3N3CCC4(CC3)CC4)n2)CCO1` [AM-5308], the remaining activity at 1 µM in test [1] (setting [5]) turned out to be 100%; in test [2] (setting [5]), 81%.
